What was measured:
[1] = target: T1, hP2X3 (human Purinergic P2X receptors subtype 3), clone B (Homo sapiens, UniProt P56373); experiment: hP2X3 FLIPR calcium (Fluo-4) antagonist assay, clone B; conditions: Human P2X3 FLIPR Clone B IC50 (nM), RLE cells expressing hP2X3 clone B (NM_002559); agonist 500 nM α,β-methylene-ATP
T1 sequence (P56373 1-397): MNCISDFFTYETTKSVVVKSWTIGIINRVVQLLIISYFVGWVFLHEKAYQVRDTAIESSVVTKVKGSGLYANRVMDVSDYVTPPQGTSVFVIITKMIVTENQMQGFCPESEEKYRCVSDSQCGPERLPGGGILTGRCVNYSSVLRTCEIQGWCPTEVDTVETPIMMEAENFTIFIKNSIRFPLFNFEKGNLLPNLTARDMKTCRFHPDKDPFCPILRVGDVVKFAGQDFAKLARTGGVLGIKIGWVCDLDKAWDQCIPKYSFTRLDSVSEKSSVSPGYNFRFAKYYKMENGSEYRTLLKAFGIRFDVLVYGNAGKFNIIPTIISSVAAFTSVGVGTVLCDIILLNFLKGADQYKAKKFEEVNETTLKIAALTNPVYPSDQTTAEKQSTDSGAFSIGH

[2] = target: T2, hP2X3 (human Purinergic P2X receptors subtype 3), clone A (Homo sapiens, UniProt P56373); experiment: hP2X3 FLIPR calcium (Fluo-4) antagonist assay, clone A; conditions: Human P2X3 FLIPR Clone A Mean IC50 (nM), RLE cells expressing hP2X3 clone A (AB016608); agonist 500 nM α,β-methylene-ATP
T2 sequence (P56373 1-397): T1 sequence (P56373 1-397)
Method: The assay used a calcium indicator dye (Fluo-4) that emits fluorescence, the intensity of which is related to the concentration of calcium that entered the cell when P2X3 was activated and the channel opened. Activation of hP2X3 or rat P2X3 and rat P2X2/3 (from the coexpression of rat P2X3 and rat P2×2) is elicited the by P2X3 agonist α,β methylene-ATP (Sigma M6517), and the resulting fluorescence is measured with a FLIPR II™ instrument (Molecular Devices). Compounds are tested for their ability to inhibit the agonist-induced fluorescent signal.
For the rat P2X2/3 HEK-TREX cells, induction of the rat P2X3 expression is used to generate the rat P2X2/3 channels in HEK-TREX cells and performed by addition of 1 μg/mL tetracycline (Invitrogen) 24 h prior to compounds testing to the HEK-TREX expressing the rat P2X2 constitutively. On the day of the experiment, the cells and test compounds are prepared as follows. […] After preparing the compounds, the medium is removed from the cell plates by inversion. A loading solution of 30 μL assay buffer containing 4 μM of the calcium indicator dye FLUO-4 AM (Molecular Probes F14202) is added to each well using a Multidrop (Labsystems). […] The incubation is terminated by washing the cells four times in assay buffer using a Skatron Embla (Molecular Devices), and 25 μL of assay buffer was left in each well. Cell plates are then transferred to the FLIPR. Experiments are initiated by measuring a baseline fluorescence reading for 10 seconds, followed by the addition of 12.5 μL of cpds and data sampling for a total 280 seconds. The experiments are terminated by addition of 12.5 μL of a reference agonist (500 nM α,β-methylene-ATP) or buffer, producing a final assay volume of 50 μL followed by data sampling for an additional 280 seconds.
In P2X3 antagonist experiments (human and rat assays) data are analysed as normalised maximal peak fluorescence monitored following agonist addition and calculated as percent of relative fluorescent counts from control agonist. The dose-response antagonist inhibition curves are analyzed in a 4-parameter sigmoidal fit using a non-linear curve-fitting program (XLfit version 5.0.6, ID Business Solutions Limited, Guildford, UK).

IC50 [1] [nM] | IC50 [2] [nM] | Structure (SMILES)
730 | 824 | COc1ccc(C2CCCN2c2nc(N3CCN(C(C)=O)CC3)nc3c2CN(C(C)C)C3=O)cc1C (centres unmarked) [Example 295, 2-(4-acetylpiperazin-1-yl)-4-[2-(4-methoxy-3-methylphenyl)pyrrolidin-1-yl]-6-(1-methylethyl)-5,6-dihydro-7H-pyrrolo[3,4-d]pyrimidin-7-one]
1400 | 1190 | CC(=O)N1CCN(c2nc3c(c(N4CCCC4c4ccc(C)cc4)n2)CN(C(C)C)C3=O)CC1 (centres unmarked) [Example 296, 2-(4-acetylpiperazin-1-yl)-6-(1-methylethyl)-4-[2-(4-methylphenyl)pyrrolidin-1-yl]-5,6-dihydro-7H-pyrrolo[3,4-d]pyrimidin-7-one]
300 | 322 | CC(=O)N1CCN(c2nc3c(c(N4CCCC4c4ccc(Cl)c(Cl)c4)n2)CN(C(C)C)C3=O)CC1 (centres unmarked) [Example 297, 2-(4-acetylpiperazin-1-yl)-4-[2-(3,4-dichlorophenyl)pyrrolidin-1-yl]-6-(1-methylethyl)-5,6-dihydro-7H-pyrrolo[3,4-d]pyrimidin-7-one]
28 | 35.5 | CC[C@H](C)N1Cc2c(NCc3cnc4ccccc4c3)nc(N3CCN(C(C)=O)CC3)nc2C1=O [Example 316, 2-(4-acetylpiperazin-1-yl)-6-[(1S)-1-methylpropyl]-4-[(quinolin-3-ylmethyl)amino]-5,6-dihydro-7H-pyrrolo[3,4-d]pyrimidin-7-one]
47 | 53.6 | CC[C@H](C)N1Cc2c(nc(N3CCN(C(C)=O)CC3)nc2N(C)Cc2cnc3ccccc3c2)C1=O [Example 319, 2-(4-acetylpiperazin-1-yl)-6-[(1S)-1-methylpropyl]-4-[methyl(quinolin-3-ylmethyl)amino]-5,6-dihydro-7H-pyrrolo[3,4-d]pyrimidin-7-one]
54 | 69.1 | CCOc1ccc([C@@H](C)Nc2nc(N3CCN(C(C)=O)CC3)nc3c2CN([C@@H](C)CC)C3=O)cc1F [Example 320, 2-(4-acetylpiperazin-1-yl)-4-{[(1R)-1-(4-ethoxy-3-fluorophenyl)ethyl]amino}-6-[(1S)-1-methylpropyl]-5,6-dihydro-7H-pyrrolo[3,4-d]pyrimidin-7-one]
3300 | 1940 | CC(=O)N1CCN(c2nc(N[C@H](C)c3ccc(C#N)cc3)c3c(n2)C(=O)N(C(C)C)C3)CC1 [Example 351, (R)-4-(1-(2-(4-acetylpiperazin-1-yl)-6-isopropyl-7-oxo-6,7-dihydro-5H-pyrrolo[3,4-d]pyrimidin-4-ylamino)ethyl)benzonitrile]

Further lines, the compound ahead of its results:

Structure (SMILES) | IC50 [1] [nM] | IC50 [2] [nM]
CCOc1ccc([C@@H](C)Nc2nc(N3CCN(C(C)=O)CC3)nc3c2CN(C(C)C)C3=O)c(OC)c1 [Example 202, (R)-2-(4-acetylpiperazin-1-yl)-4-(1-(4-ethoxy-2-methoxyphenyl)ethylamino)-6-isopropyl-5H-pyrrolo[3,4-d]pyrimidin-7(6H)-one] | 51 | 47
COc1cc(OC(C)C)ccc1[C@@H](C)Nc1nc(N2CCN(C(C)=O)CC2)nc2c1CN(C(C)C)C2=O [Example 203, (R)-2-(4-acetylpiperazin-1-yl)-4-(1-(4-isopropoxy-2-methoxyphenyl)ethylamino)-6-isopropyl-5H-pyrrolo[3,4-d]pyrimidin-7(6H)-one] | 62 | 65.8
CCOc1ccc([C@@H](C)Nc2nc(N3CCN(C(C)=O)CC3)nc3c2CN(C(C)C)C3=O)c(F)c1 [Example 204, (R)-2-(4-acetylpiperazin-1-yl)-4-(1-(4-ethoxy-2-fluorophenyl)ethylamino)-6-isopropyl-5H-pyrrolo[3,4-d]pyrimidin-7(6H)-one] | 38 | 50.4
CC(=O)N1CCN(c2nc(NCc3cc4ccccc4c(C)n3)c3c(n2)C(=O)N(C(C)C)C3)CC1 [Example 259, 2-(4-acetylpiperazin-1-yl)-6-isopropyl-4-((1-methylisoquinolin-3-yl)methylamino)-5H-pyrrolo[3,4-d]pyrimidin-7(6H)-one] | 16 | 27.2
CCOc1ccc([C@@H](C)N(C)c2nc(N3CCN(C(C)=O)CC3)nc3c2CN(C(C)C)C3=O)cc1F [Example 262, (R)-2-(4-acetylpiperazin-1-yl)-4-((1-(4-ethoxy-3-fluorophenyl)ethyl)(methyl)amino)-6-isopropyl-5H-pyrrolo[3,4-d]pyrimidin-7(6H)-one] | 85 | 84.5
CC(=O)N1CCN(c2nc3c(c(N(C)Cc4cc5ccccc5c(C)n4)n2)CN(C(C)C)C3=O)CC1 [Example 263, 2-(4-acetylpiperazin-1-yl)-6-isopropyl-4-(methyl((1-methylisoquinolin-3-yl)methyl)amino)-5H-pyrrolo[3,4-d]pyrimidin-7(6H)-one] | 94 | 85
CC(=O)N1CCN(c2nc3c(c(N4CCCC4c4ccc(F)cc4)n2)CN(C(C)C)C3=O)CC1 (centres unmarked) [Example 292, 2-(4-acetylpiperazin-1-yl)-4-[2-(4-fluorophenyl)pyrrolidin-1-yl]-6-(1-methylethyl)-5,6-dihydro-7H-pyrrolo[3,4-d]pyrimidin-7-one] | 3600 | 4950
COCc1ccc(CC2CCCN2c2nc(N3CCN(C(C)=O)CC3)nc3c2CN(C(C)C)C3=O)cc1 (centres unmarked) [Example 293, 2-(4-acetylpiperazin-1-yl)-4-{2-[4-(methoxymethyl)benzyl]pyrrolidin-1-yl}-6-(1-methylethyl)-5,6-dihydro-7H-pyrrolo[3,4-d]pyrimidin-7-one] | 1400 | 1590
CC(=O)c1ccc(CC2CCCN2c2nc(N3CCN(C(C)=O)CC3)nc3c2CN(C(C)C)C3=O)cc1 (centres unmarked) [Example 294, 4-[2-(4-acetylbenzyl)pyrrolidin-1-yl]-2-(4-acetylpiperazin-1-yl)-6-(1-methylethyl)-5,6-dihydro-7H-pyrrolo[3,4-d]pyrimidin-7-one] | 980 | 1840

— US20090099195A1 (ASTRAZENECA AB, priority 2007, published 2009)
